In patent US6486343B1, “Substituted phenyl keto enols as pesticides and herbicides” (Bayer Aktiengesellschaft, priority 1996, dated 2002):

Legend:
Format in all cases: in vivo
[1] = tested on: caterpillars of the diamond-back moth (Plutella maculipennis); assay: Plutella test; settings: active compound concentration 0.1%; after 7 days; cabbage leaves dipped
Description: Plutella Test Solvent: 7 parts by weight of dimethylformamide Emulsifier: 1 part by weight of alkylaryl polyglycol ether To produce a suitable preparation of active compound, 1 part by weight of active compound is mixed with the stated amount of solvent and the stated amount of emulsifier, and the concentrate is diluted with water to the desired concentration. Cabbage leaves (Brassica oleracea) are treated by being dipped into the preparation of active compound of the desired concentration and are infested with caterpillars of the diamond-back moth (Plutella maculipennis) while the leaves are still moist. After the specified period of time, the destruction in % is determined. 100% means that all the caterpillars have been killed; 0% means that none of the caterpillars have been killed.

[2] = tested on: mustard beetle larvae (Phaedon cochleariae); assay: Phaedon larvae test; settings: active compound concentration 1000 ppm; after 7 days; cabbage leaves dipped
Description: (§1) Phaedon Larvae Test Solvent: 7 parts by weight of dimethylformamide Emulsifier: 1 part by weight of alkylaryl polyglycol ether To produce a suitable preparation of active compound, 1 part by weight of active compound is mixed with the stated amount of solvent and the stated amount of emulsifier, and the concentrate is diluted with water to the desired concentration. Cabbage leaves (Brassica oleracea) are treated by being dipped into the preparation of the active compound of the desired concentration and are infested with mustard beetle larvae (Phaedon cochleariae) while the leaves are still moist. After the specified period of time, the destruction in % is determined. 100% means that all the beetle larvae have been killed; 0% means that none of the beetle larvae have been killed.

[3] = tested on: larvae of the green rice leafhopper (Nephotettix cincticeps); assay: Nephotettix test; settings: active compound concentration 0.1%; after 6 days; rice seedlings dipped
Description: as §1, with “Nephotettix” for “Phaedon Larvae”, “Rice seedlings (Oryzae sativa)” for “Cabbage leaves (Brassica oleracea)”, “with” for “with mustard beetle”, “of the green rice leafhopper (Nephotettix cincticeps)” for “(Phaedon cochleariae)”, “seedlings” for “leaves”, “leafhoppers” for “beetle larvae”

[4] = tested on: spider mite (Tetranychus urticae); assay: Tetranychus test (OP resistant/dip treatment); settings: active compound concentration 0.1%; after 5 days; bean plants dipped
Description: Tetranychus Test (OP Resistant/dip Treatment)
Solvent: 3 parts by weight of dimethylformamide
Emulsifier: 1 part by weight of alkylaryl polyglycol ether
To produce a suitable preparation of active compound, 1 part by weight of active compound is mixed with the stated amount of solvent and the stated amount of emulsifier, and the concentrate is diluted with water to the desired concentration.
Bean plants (Phaseolus vulgaris) heavily infected by all stages of the spider mite (Tetranychus urticae) are dipped into a preparation of the active compound of the desired concentration.
After the specified period of time, the destruction in % is determined. 100% means that all spider mites have been killed; 0% means that none of the spider mites have been killed.

CCOC(=O)OC1=C(c2c(C)ccc(Cl)c2C)C(=O)NC12CCC(C)CC2 (centres unmarked) [I-1-c-1]
destruction in % [1]: 100% | destruction in % [2]: 100%

Cc1ccc(Cl)c(C)c1C1=C(O)C2(CCC(C)CC2)NC1=O (centres unmarked) [I-1-a-1]
destruction in % [3]: 100% | destruction in % [4]: 100%

Cc1ccc(Cl)c(C)c1C1=C(OC(=O)C(C)(C)C)C2(CCCCC2)OC1=O [I-2-b-1]
destruction in % [4]: 100%

Cc1ccc(Cl)c(C)c1C1=C(OC(=O)CC(C)C)C2(CCC(C)CC2)NC1=O (centres unmarked) [I-1-b-1]
destruction in % [3]: 100% | destruction in % [1]: 100% | destruction in % [2]: 100%
